Measurements taken from ChEMBL document CHEMBL1759924, “Natural products-based insecticidal agents 9. Design, semisynthesis and insecticidal activity of 28-acyloxy derivatives of toosendanin against Mythimna separata Walker in vivo” (2011).
The source made the active and inactive calls. No cut-off for these calls is given here.

Legend:
[1] = system: Mythimna separata; assay: Insecticidal activity against Mythimna separata Walker assessed as mortality rate at 1 mg/mL after 20 days by leaf dipping method; format: functional
[2] = system: Mythimna separata; assay: Insecticidal activity against Mythimna separata Walker assessed as mortality rate at 1 mg/mL after 10 days by leaf dipping method; format: functional
[3] = system: Mythimna separata; assay: Insecticidal activity against Mythimna separata Walker assessed as mortality rate at 1 mg/mL after 35 days by leaf dipping method; format: functional
[4] = system: Mythimna separata; assay: Insecticidal activity against Mythimna separata Walker assessed as mortality at 1 mg/mL by leaf dipping method; format: functional, organism-based; conditions: TDE = time-dependent effect
[5] = system: Mythimna separata; assay: Insecticidal activity against Mythimna separata assessed as malformed moths with imperfect wings at day 27; format: functional, organism-based
[6] = system: Mythimna separata; assay: Insecticidal activity against Mythimna separata larvae assessed as malformed pupae during pupation period at day 19; format: functional, organism-based
[7] = system: Mythimna separata; assay: Insecticidal activity against Mythimna separata assessed as slim and wrinkled body during larval period upto 48 hrs; format: functional, organism-based

Row | Compound | Activity [1] | Activity [2] | Activity [3] | Activity [4] | Activity [5] | Activity [6] | Activity [7]
1 | CC(=O)O[C@@H]1C[C@H](O)[C@@]23CO[C@@H](O)[C@]1(C)[C@@H]2C[C@@H](O)[C@]1(C)[C@@H]3C(=O)[C@H](OC(C)=O)[C@@]2(C)[C@H](c3ccoc3)C[C@H]3O[C@]321 [TOOSENDANIN] | 30.8% | 24.1% | 50% | tde |  |  | 
2 | CC(=O)O[C@@H]1C[C@H](O)[C@@]23CO[C@H](OC(=O)c4cccc(Cl)c4)[C@]1(C)[C@@H]2C[C@@H](O)[C@]1(C)[C@@H]3C(=O)[C@H](OC(C)=O)[C@@]2(C)C(c3ccoc3)C[C@H]3O[C@@]312 (single isomer, unassigned) | 34.6% | 27.6% | 46.2% | tde | Active |  | 
3 | CC(=O)O[C@@H]1C[C@H](O)[C@@]23CO[C@H](OC(=O)/C=C/c4ccccc4)[C@]1(C)[C@@H]2C[C@@H](O)[C@]1(C)[C@@H]3C(=O)[C@H](OC(C)=O)[C@@]2(C)C(c3ccoc3)C[C@H]3O[C@@]312 (single isomer, unassigned) | 38.5% | 20.7% | 61.5% | tde |  | Active | 
4 | CC(=O)O[C@@H]1C[C@H](O)[C@@]23CO[C@H](OC(=O)c4ccc([N+](=O)[O-])cc4)[C@]1(C)[C@@H]2C[C@@H](O)[C@]1(C)[C@@H]3C(=O)[C@H](OC(C)=O)[C@@]2(C)C(c3ccoc3)C[C@H]3O[C@@]312 (single isomer, unassigned) | 26.9% | 24.2% | 42.3% | tde | Active |  | 
5 | CC(=O)O[C@@H]1C[C@H](O)[C@@]23CO[C@H](OC(=O)Cc4ccccc4)[C@]1(C)[C@@H]2C[C@@H](O)[C@]1(C)[C@@H]3C(=O)[C@H](OC(C)=O)[C@@]2(C)C(c3ccoc3)C[C@H]3O[C@@]312 (single isomer, unassigned) | 26.9% | 24.1% | 42.3% | tde |  |  | 
6 | CC(=O)O[C@@H]1C[C@H](O)[C@@]23CO[C@H](OC(=O)CCc4ccccc4)[C@]1(C)[C@@H]2C[C@@H](O)[C@]1(C)[C@@H]3C(=O)[C@H](OC(C)=O)[C@@]2(C)C(c3ccoc3)C[C@H]3O[C@@]312 (single isomer, unassigned) | 30.8% | 20.7% | 53.9% | tde | Active |  | 
7 | CC(=O)O[C@H]1OC[C@@]23[C@H]4C(=O)[C@H](OC(C)=O)[C@@]5(C)C(c6ccoc6)C[C@H]6O[C@]65[C@]4(C)[C@H](O)C[C@H]2[C@]1(C)[C@H](OC(C)=O)C[C@@H]3O (single isomer, unassigned) | 26.9% | 24.1% | 50% | tde |  | Active | Active
8 | CC(=O)O[C@@H]1C[C@H](O)[C@@]23CO[C@H](OC(=O)c4ccccc4)[C@]1(C)[C@@H]2C[C@@H](O)[C@]1(C)[C@@H]3C(=O)[C@H](OC(C)=O)[C@@]2(C)C(c3ccoc3)C[C@H]3O[C@@]312 (single isomer, unassigned) | 23.1% | 20.7% | 46.2% | tde | Active |  | 
9 | CCC(=O)O[C@H]1OC[C@@]23[C@H]4C(=O)[C@H](OC(C)=O)[C@@]5(C)C(c6ccoc6)C[C@H]6O[C@]65[C@]4(C)[C@H](O)C[C@H]2[C@]1(C)[C@H](OC(C)=O)C[C@@H]3O (single isomer, unassigned) | 30.8% | 24.1% | 53.9% | tde |  |  | Active
10 | CC(=O)O[C@@H]1C[C@H](O)[C@@]23CO[C@H](OC(=O)c4ccc(Cl)cc4)[C@]1(C)[C@@H]2C[C@@H](O)[C@]1(C)[C@@H]3C(=O)[C@H](OC(C)=O)[C@@]2(C)C(c3ccoc3)C[C@H]3O[C@@]312 (single isomer, unassigned) | 26.9% | 20.7% | 50% | tde |  | Active | Active
11 | CC(=O)O[C@@H]1C[C@H](O)[C@@]23CO[C@H](OC(=O)c4ccccc4Cl)[C@]1(C)[C@@H]2C[C@@H](O)[C@]1(C)[C@@H]3C(=O)[C@H](OC(C)=O)[C@@]2(C)C(c3ccoc3)C[C@H]3O[C@@]312 (single isomer, unassigned) | 23.1% | 20.7% | 38.5% | tde | Active |  | Active
12 | CCCC(=O)O[C@H]1OC[C@@]23[C@H]4C(=O)[C@H](OC(C)=O)[C@@]5(C)C(c6ccoc6)C[C@H]6O[C@]65[C@]4(C)[C@H](O)C[C@H]2[C@]1(C)[C@H](OC(C)=O)C[C@@H]3O (single isomer, unassigned) | 42.3% | 31% | 73.1% | tde |  | Active | 
13 | COc1ccc(C(=O)O[C@H]2OC[C@@]34[C@H]5C(=O)[C@H](OC(C)=O)[C@@]6(C)C(c7ccoc7)C[C@H]7O[C@]76[C@]5(C)[C@H](O)C[C@H]3[C@]2(C)[C@H](OC(C)=O)C[C@@H]4O)cc1 (single isomer, unassigned) | 26.9% | 20.7% | 42.3% | tde |  |  | 
